The values below come from patent publication US20230047102A1, “PHARMACEUTICAL COMPOSITIONS COMPRISING N-[1-(5-CYANO-PYRIDIN-2-YLMETHYL)-1H-PYRAZOL-3-YL]-2-[4-(1-TRIFLUOROMETHYL-CYCLOPROPYL)-PHENYL]-ACETAMIDE” (Idorsia Pharmaceuticals Ltd, priority 2019, published 2023).

For data set [1] the following is noted: subject to certain variations of this value found in the literature; cited from earlier work.
Data set [2] in a line: Steady-state exposure with 60 mg once-daily dose in adults. Format: in vivo, human. The conditions noted are these: 60 mg once-daily dose at steady state in adults; 95% confidence interval 11.2, 16.7. How it is done:
The starting dose of study treatment for the sentinel cohort (dose level 1) will be based on body weight categories (based on subjects' body weight on Day 1), as detailed in the table below. This study intends to target exposures equivalent to those observed with a 60 mg once-daily dose at steady state in adults (area under the concentration versus time curve during 1 dosing interval [AUCT] of 13.7 μgxh/mL [95% confidence interval (CD: 11.2, 16.7 μgxh/m14. Based on the exposure data obtained from the sentinel cohort, the doses may be adjusted if required to achieve the targeted exposure in the main cohort.

Regarding `CCCCCCCCCCCCOS(=O)(=O)[O-].[Na+]` [SLS, Sodium lauryl sulfate], the “hydrophilic-lipophilic balance (HLB) value” in data set [1] is reported as “about 40”.
With `N#Cc1ccc(Cn2ccc(NC(=O)Cc3ccc(C4(C(F)(F)F)CC4)cc3)n2)nc1` [NBI-827104, N-[1-(5-cyano-pyridin-2-ylmethyl)-1H-pyrazol-3-yl]-2-[4-(1-trifluoromethyl-cyclopropyl)-phenyl]-acetamide], in data set [2], the “area under the concentration versus time curve during 1 dosing interval [AUCT]” value is reported as 13.7 μgxh/mL.
Consider Poloxamer 188, for which the “hydrophilic-lipophilic balance (HLB) value” in data set [1] was “about 29”.
